Experiments:
[1] = biological target: T1, Vasoactive intestinal polypeptide receptor 1 (Homo sapiens, UniProt P32241); type: cell membranes, Membrane; details: ht-29; further: in other assays of this panel Not Active means under 50% inhibition at 10 µM
T1 sequence (P32241 whole entry): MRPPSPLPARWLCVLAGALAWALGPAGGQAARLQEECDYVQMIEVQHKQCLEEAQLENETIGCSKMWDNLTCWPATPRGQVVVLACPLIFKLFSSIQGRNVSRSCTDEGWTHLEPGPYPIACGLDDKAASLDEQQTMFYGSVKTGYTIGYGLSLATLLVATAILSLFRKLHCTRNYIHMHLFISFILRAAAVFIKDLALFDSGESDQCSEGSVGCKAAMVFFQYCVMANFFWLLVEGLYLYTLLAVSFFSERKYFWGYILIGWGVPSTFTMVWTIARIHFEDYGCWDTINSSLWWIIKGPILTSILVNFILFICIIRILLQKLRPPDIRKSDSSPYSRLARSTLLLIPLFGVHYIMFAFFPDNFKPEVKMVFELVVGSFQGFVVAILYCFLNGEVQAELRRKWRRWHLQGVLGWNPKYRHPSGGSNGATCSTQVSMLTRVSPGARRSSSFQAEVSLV

[2] = biological target: T2, Neuropeptide Y receptor type 1 (Homo sapiens, UniProt P25929); type: cell membranes, Membrane; details: sk-n-mc; further: in other assays of this panel Not Active means under 50% inhibition at 10 µM
T2 sequence (P25929 whole entry): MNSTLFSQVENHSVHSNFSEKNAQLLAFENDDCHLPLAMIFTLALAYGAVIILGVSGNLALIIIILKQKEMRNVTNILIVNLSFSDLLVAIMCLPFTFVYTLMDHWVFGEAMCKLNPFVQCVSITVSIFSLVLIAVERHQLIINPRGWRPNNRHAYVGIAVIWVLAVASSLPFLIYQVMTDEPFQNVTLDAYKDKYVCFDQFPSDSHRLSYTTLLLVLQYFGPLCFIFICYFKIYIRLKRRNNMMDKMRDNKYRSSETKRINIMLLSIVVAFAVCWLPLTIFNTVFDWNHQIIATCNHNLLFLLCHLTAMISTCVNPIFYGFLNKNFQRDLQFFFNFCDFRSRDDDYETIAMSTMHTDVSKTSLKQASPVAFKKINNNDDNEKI

Cathepsin G = biological target: T3, Cathepsin G (Homo sapiens, UniProt P08311); type: tissue-based; details: neutrophil;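 further: inhibition of Cathepsin G enzyme activity, tested on an AMC-conjugated peptide substrate; in other assays of this panel Not Active means under 50% inhibition at 10 µM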
T3 sequence (P08311 whole entry): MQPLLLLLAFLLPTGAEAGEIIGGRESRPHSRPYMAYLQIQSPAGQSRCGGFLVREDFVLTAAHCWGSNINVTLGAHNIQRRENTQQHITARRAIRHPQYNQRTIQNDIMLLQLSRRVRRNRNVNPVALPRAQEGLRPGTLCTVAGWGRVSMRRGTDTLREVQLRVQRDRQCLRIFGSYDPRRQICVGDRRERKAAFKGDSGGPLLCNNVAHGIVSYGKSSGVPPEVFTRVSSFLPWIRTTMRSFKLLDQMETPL

[3] = biological target: Mitogen-activated protein kinase 3 (Homo sapiens, UniProt P27361); experiment: DRUGMATRIX: Protein Serine/Threonine Kinase, ERK1 enzyme inhibition (substrate: Myelin Basic Protein); set-up: species or system Escherichia coli; details: Not Active = under 50% inhibition at 10 µM
Mitogen-activated protein kinase 3, sequence (P27361 whole entry): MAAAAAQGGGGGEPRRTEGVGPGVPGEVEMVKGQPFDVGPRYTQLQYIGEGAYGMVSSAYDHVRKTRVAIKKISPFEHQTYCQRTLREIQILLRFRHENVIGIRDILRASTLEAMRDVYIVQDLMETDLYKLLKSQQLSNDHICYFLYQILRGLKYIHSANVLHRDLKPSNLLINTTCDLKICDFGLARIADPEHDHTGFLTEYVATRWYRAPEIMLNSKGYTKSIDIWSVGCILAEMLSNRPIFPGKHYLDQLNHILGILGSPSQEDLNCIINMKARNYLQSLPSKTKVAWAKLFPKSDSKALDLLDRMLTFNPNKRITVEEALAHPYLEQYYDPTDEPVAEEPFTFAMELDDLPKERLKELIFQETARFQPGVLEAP

[4] = biological target: T4, Alpha-1B adrenergic receptor (Rattus norvegicus, UniProt P15823); experiment: DRUGMATRIX: Alpha-1B adrenergic receptor radioligand binding (ligand: prazosin); type: cell membranes, Wistar, Liver, Membrane; details: Not Active = under 50% inhibition at 10 µM
T4 sequence (P15823 whole entry): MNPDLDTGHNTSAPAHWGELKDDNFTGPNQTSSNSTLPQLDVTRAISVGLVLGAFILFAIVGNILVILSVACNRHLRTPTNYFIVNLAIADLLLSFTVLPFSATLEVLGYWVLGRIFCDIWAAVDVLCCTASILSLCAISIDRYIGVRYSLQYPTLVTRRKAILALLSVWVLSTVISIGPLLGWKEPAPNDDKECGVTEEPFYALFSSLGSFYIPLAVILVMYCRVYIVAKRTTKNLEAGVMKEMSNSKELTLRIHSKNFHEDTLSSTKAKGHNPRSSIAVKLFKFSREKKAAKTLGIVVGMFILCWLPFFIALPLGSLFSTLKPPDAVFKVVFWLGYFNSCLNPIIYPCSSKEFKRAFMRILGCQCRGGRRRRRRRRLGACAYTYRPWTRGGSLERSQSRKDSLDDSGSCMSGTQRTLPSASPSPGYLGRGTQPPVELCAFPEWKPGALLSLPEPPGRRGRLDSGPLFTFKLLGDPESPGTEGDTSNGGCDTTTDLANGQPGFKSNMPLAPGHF

[5] = biological target: Aldo-keto reductase family 1 member B1 (Rattus norvegicus, UniProt P07943); type: tissue-based, Lens of camera-type eye;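 further: inhibition of aldose reductase enzyme activity, measured with DL-glyceraldehyde as the substrate; in other assays of this panel Not Active means under 50% inhibition at 10 µM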
Interstitial collagenase = biological target: T5, Interstitial collagenase (Homo sapiens, UniProt P03956); type: tissue-based, Rheumatoid synovial fibroblasts
T5 sequence (P03956 whole entry): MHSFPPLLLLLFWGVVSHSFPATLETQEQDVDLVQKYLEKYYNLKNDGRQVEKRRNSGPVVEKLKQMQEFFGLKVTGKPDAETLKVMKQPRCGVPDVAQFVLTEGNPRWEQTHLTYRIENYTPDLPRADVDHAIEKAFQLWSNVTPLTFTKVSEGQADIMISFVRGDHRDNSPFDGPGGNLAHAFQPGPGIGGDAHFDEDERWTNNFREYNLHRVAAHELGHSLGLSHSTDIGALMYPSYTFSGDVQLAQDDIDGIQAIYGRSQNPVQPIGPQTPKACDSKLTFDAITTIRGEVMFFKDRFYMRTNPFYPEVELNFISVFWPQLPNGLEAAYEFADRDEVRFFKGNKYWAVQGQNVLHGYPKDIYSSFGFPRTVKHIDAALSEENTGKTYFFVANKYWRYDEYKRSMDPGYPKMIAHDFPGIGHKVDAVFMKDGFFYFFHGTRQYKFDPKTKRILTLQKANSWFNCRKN

Melanocortin receptor 3 = Melanocortin receptor 3 (Homo sapiens, UniProt P41968); type: cell membranes, Membrane; details: hek293; further: in other assays of this panel Not Active means under 50% inhibition at 10 µM
Melanocortin receptor 3, sequence (P41968 whole entry): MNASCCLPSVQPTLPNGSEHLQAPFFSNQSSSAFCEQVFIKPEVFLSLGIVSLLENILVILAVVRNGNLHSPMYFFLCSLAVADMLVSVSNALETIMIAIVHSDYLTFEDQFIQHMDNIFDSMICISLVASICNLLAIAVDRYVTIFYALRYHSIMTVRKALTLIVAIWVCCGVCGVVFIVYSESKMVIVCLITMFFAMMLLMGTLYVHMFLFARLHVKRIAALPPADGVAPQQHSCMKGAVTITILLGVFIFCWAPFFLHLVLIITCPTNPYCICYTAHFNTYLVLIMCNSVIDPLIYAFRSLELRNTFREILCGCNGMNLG

Nitric oxide synthase 1 = Nitric oxide synthase 1 (Rattus norvegicus, UniProt P29476); type: tissue-based, Cerebellum; further: in other assays of this panel Not Active means under 50% inhibition at 10 µM
Nitric oxide synthase 1, sequence (P29476 whole entry): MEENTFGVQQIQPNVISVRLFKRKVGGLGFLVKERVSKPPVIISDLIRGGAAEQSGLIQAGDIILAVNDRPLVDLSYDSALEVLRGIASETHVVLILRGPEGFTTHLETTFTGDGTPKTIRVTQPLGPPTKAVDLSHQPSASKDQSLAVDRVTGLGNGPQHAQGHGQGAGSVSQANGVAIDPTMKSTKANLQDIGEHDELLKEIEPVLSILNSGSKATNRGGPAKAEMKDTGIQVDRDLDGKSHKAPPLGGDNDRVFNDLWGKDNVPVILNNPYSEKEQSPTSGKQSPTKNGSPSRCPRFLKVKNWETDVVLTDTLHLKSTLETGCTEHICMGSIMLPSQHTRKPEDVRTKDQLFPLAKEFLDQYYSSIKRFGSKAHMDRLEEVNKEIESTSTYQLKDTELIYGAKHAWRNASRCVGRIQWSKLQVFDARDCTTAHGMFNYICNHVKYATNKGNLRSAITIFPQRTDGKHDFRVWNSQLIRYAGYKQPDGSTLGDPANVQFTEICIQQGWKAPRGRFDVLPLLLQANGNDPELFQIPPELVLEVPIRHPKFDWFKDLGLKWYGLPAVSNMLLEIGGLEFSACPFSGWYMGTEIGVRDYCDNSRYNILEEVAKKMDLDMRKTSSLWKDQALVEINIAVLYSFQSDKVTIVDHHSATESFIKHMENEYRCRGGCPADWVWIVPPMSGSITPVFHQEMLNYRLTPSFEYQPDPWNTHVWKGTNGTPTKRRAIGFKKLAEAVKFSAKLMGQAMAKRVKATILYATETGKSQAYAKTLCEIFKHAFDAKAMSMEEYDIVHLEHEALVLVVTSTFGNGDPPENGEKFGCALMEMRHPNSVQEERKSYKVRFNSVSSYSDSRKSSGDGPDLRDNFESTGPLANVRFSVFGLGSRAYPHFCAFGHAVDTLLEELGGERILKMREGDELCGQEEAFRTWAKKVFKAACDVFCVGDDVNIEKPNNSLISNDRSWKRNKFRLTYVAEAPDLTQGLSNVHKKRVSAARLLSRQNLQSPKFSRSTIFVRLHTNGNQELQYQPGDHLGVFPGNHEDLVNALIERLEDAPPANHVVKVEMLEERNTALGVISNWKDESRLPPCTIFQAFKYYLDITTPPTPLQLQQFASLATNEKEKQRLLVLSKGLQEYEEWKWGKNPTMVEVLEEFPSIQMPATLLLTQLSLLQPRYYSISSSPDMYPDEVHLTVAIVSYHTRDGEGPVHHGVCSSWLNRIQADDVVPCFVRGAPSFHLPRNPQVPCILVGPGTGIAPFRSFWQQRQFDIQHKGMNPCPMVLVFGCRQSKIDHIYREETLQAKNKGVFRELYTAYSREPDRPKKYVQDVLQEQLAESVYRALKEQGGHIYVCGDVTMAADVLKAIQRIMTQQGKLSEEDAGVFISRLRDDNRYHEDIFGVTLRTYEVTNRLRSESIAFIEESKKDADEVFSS

Endothelin-1 receptor = biological target: T6, Endothelin-1 receptor (Homo sapiens, UniProt P25101); type: cell membranes, Membrane; details: cho-k1; further: in other assays of this panel Not Active means under 50% inhibition at 10 µM
T6 sequence (P25101 whole entry): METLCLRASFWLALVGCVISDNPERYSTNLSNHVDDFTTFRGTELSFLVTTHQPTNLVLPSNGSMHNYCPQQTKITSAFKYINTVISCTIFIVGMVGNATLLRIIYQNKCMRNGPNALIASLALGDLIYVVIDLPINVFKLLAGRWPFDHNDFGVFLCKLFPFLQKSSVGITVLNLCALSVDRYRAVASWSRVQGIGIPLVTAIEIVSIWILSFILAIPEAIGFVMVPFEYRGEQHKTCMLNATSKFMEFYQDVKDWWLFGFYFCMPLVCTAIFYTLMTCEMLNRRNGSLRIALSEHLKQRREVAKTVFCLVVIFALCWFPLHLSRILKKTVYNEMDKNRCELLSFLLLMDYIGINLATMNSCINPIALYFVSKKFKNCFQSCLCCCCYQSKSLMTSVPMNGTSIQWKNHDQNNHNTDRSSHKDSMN

Cc1[nH]cnc1CN1CCc2c(c3ccccc3n2C)C1=O [ALOSETRON]
Not Active: IC50 [1] | IC50 [2] | IC50 (Cathepsin G) | IC50 [3] | IC50 [4] | IC50 [5] | IC50 (Interstitial collagenase) | IC50 (Melanocortin receptor 3) | IC50 (Nitric oxide synthase 1) | IC50 (Endothelin-1 receptor)

O=c1cc(-c2ccccc2)oc2c1ccc1ccccc12 [ALPHA-NAPHTHOFLAVONE]
Not Active: IC50 [1] | IC50 [2] | IC50 (Cathepsin G) | IC50 [3] | IC50 [4] | IC50 [5] | IC50 (Interstitial collagenase) | IC50 (Melanocortin receptor 3) | IC50 (Nitric oxide synthase 1) | IC50 (Endothelin-1 receptor)

NCC[C@H](O)C(=O)N[C@@H]1C[C@H](N)[C@@H](O[C@H]2O[C@H](CN)[C@@H](O)[C@H](O)[C@H]2O)[C@H](O)[C@H]1O[C@H]1O[C@H](CO)[C@@H](O)[C@H](N)[C@H]1O [AMIKACIN]
Not Active: IC50 [1] | IC50 [2] | IC50 (Cathepsin G) | IC50 [3] | IC50 [4] | IC50 [5] | IC50 (Interstitial collagenase) | IC50 (Melanocortin receptor 3) | IC50 (Nitric oxide synthase 1) | IC50 (Endothelin-1 receptor)

CC1(C)S[C@@H]2[C@H](NC(=O)[C@H](N)c3ccc(O)cc3)C(=O)N2[C@H]1C(=O)O [AMOXICILLIN]
Not Active: IC50 [1] | IC50 [2] | IC50 (Cathepsin G) | IC50 [3] | IC50 [4] | IC50 [5] | IC50 (Interstitial collagenase) | IC50 (Melanocortin receptor 3) | IC50 (Nitric oxide synthase 1) | IC50 (Endothelin-1 receptor)

CCOC(=O)OC(C)OC1=C(C(=O)Nc2ccccn2)N(C)S(=O)(=O)c2ccccc21 (stereo not given) [AMPIROXICAM]
Not Active: IC50 [1] | IC50 [2] | IC50 (Cathepsin G) | IC50 [3] | IC50 [4] | IC50 [5] | IC50 (Interstitial collagenase) | IC50 (Melanocortin receptor 3) | IC50 (Nitric oxide synthase 1) | IC50 (Endothelin-1 receptor)

N#C[C@H](O[C@@H]1O[C@H](CO[C@@H]2O[C@H](CO)[C@@H](O)[C@H](O)[C@H]2O)[C@@H](O)[C@H](O)[C@H]1O)c1ccccc1 [AMYGDALIN]
Not Active: IC50 [1] | IC50 [2] | IC50 (Cathepsin G) | IC50 [3] | IC50 [4] | IC50 [5] | Ki (Interstitial collagenase) | IC50 (Melanocortin receptor 3) | IC50 (Nitric oxide synthase 1) | IC50 (Endothelin-1 receptor)

N=C(N)NCCCCNC(=N)N.O=S(=O)(O)O [ARCAINE SULFATE]
Not Active: IC50 [1] | IC50 [2] | IC50 (Cathepsin G) | IC50 [3] | IC50 [4] | IC50 [5] | IC50 (Interstitial collagenase) | IC50 (Melanocortin receptor 3) | IC50 (Nitric oxide synthase 1) | IC50 (Endothelin-1 receptor)

C=C1[C@@H]2CCC3[C@@](CC[C@@H]4[C@H](C(=O)O)C[C@@H](O[C@@H]5O[C@H](CO)[C@@H](OS(=O)(=O)[O-])[C@H](OS(=O)(=O)[O-])[C@H]5OC(=O)CC(C)C)C[C@@]34C)(C2)[C@@H]1O.[K+].[K+] (stereo not given in full) [ATRACTYLOSIDE]
Not Active: IC50 [1] | IC50 [2] | IC50 (Cathepsin G) | IC50 [3] | IC50 [4] | IC50 [5] | IC50 (Interstitial collagenase) | IC50 (Melanocortin receptor 3) | IC50 (Nitric oxide synthase 1) | IC50 (Endothelin-1 receptor)

Cn1cnc([N+](=O)[O-])c1Sc1ncnc2nc[nH]c12 [AZATHIOPRINE]
Not Active: IC50 [1] | IC50 [2] | IC50 (Cathepsin G) | IC50 [3] | IC50 [4] | IC50 [5] | IC50 (Interstitial collagenase) | IC50 (Melanocortin receptor 3) | IC50 (Nitric oxide synthase 1) | IC50 (Endothelin-1 receptor)
